# Experimental data: article PMC11796312, “Multifunctional, Fluorene‐Based Modulator of Cholinergic and GABAergic Neurotransmission as a Novel Drug Candidate for Palliative Treatment of Alzheimer's Disease” (Angewandte Chemie (International Ed. in English), 2024)
# “Also recorded” adds a separate entry of the source.
# Key:
# [1] = tested on: mice treated with scopolamine; assay: Barnes maze (BM) task; assay type: in vivo, C57BL/6J mice
# Description: Animals and housing conditions
# In all pharmacodynamic in vivo experiments, except for the Barnes maze (BM) task, adult male Albino Swiss (CD-1) mice weighing between 18 and 22 g and purchased from the Animal Breeding Farm of the Faculty of Pharmacy, Jagiellonian University Medical College were used. In BM task, C57BL/6J mice of the same weight (Animalab, Poland) were used.
# Animals were housed in cages (10 mice per cage) at a constant temperature of 22 ± 2 °C, humidity of 55 ± 10%, and a light/dark (12:12) cycle (lights on at 7 AM). Before the experiments, the animals had unlimited access to food and water. Specified conditions for the maintenance of mice were ensured throughout the experiments, including tree bedding (Transwior, Poland) and cage enrichment (tunnels, nesting material, wooden igloos, etc.). For the behavioral test, the mice were selected randomly; each group consisted of 7-12 mice. The experiments were performed between 9 AM and 3 PM. After in vivo tests, the animals were […]
# Ethical approval statement
# The procedures for the maintenance and treatment of laboratory animals were approved by the 1st Local Ethics Committee of the Jagiellonian University in Krakow (Approvals No.
# 524/2021, 618/2022), and the treatment of animals was in full accordance with ethical […]
# Drugs and dose selection for the in vivo tests
# For in vivo assays 6 was suspended in 1% Tween 80 (Sigma Aldrich, Poland) and administered intraperitoneally (i.p.) 60 min before the acquisition trial of the passive avoidance (PA) task, BM task and 60 min before the forced swim test (FST), four-plate test (FPT) and elevated plus maze (EPM) test. Doses 10 mg/kg and 30 mg/kg were the starting […]
# doses for behavioral assays. Lower doses were also assessed if at least one of them was […]
# Scopolamine hydrobromide used at the dose of 1 mg/kg for the induction of learning and memory deficits was supplied by Sigma Aldrich (Poland). The dose of scopolamine was chosen based on our previous studies[44,45] and available literature data.[46] […]
# Effect on spatial learning and memory – Barnes maze task
# Spatial learning and memory in mice were also assessed using the BM task.[47] This task was performed with the BM apparatus (Panlab-Harvard Apparatus, Spain). It consists of a circular, dry, open platform surface equipped with 18 holes around the perimeter of the platform and a small dark recessed chamber located under one of them. Visual extra-maze cues (pictures of colored geometric figures with contrasting backgrounds placed at a distance of 1 m from the platform) were provided to facilitate learning. A weak aversive stimulus (light 600 lx) was applied to increase the animals’ motivation to escape from the circular platform.
# The spatial acquisition trial was performed during the first 4 days of the experiment. On the first day of the test, an additional adaptation period preceded a proper trial. In this phase, mice were individually placed in a cylindrical black start chamber in the middle of the circular maze. Ten seconds later, the mouse was released from the start chamber, the light was turned on, and the animal was gently guided to the escape box (a small dark recessed chamber under the BM platform), where it remained for the next 2 min. This phase was not preceded by drug […]
# In the spatial acquisition phase, each mouse was subjected to four trials daily, keeping 15-min intervals between each trial. […]
# [2] = tested on: mice; assay: Locomotor activity test; assay type: in vivo; conditions: 10 and 30 mg/kg i.p.
# Description: Effect on depressive-like behavior - forced swim test
# The experiment was carried out according to Porsolt et al.[48] with small modifications.
# Briefly, mice were individually placed in a glass cylinder (25 cm high, 10 cm in diameter) containing 11 cm of water maintained at 23–25 °C and were left therein for 6 min. A mouse was regarded as immobile when it remained floating on the water, making only small movements to keep its head above it. The total duration of immobility was measured during the final 4 min of a 6-min test session.
# Effect on anxiety - four-plate test
# The four-plate apparatus (FPT; Bioseb, France) consists of a cage (25 × 18 × 16 cm) that is floored with four rectangular metal plates (11 × 8 cm). The plates are separated from one another by a 4 mm gap, and they are connected to an electroshock generator. […] The number of punished crossings was counted […]
# of the closed arms. […] The following parameters were measured in this test: time spent in open arms of the EPM device and the number of entries to open arms. […]
# crossings) were counted during the next 60 min of the test. […]
# For the analysis of data obtained in the in vivo tests GraphPad Prism software (v. 9.0, CA, USA) was used. Numerical results from the tests were expressed as mean ± standard error of the mean (SEM). […]
# In this fear-motivated task the effect of 6 on scopolamine-induced cognitive dysfunction was assessed. […]
# [3] = tested on: SH-SY5Y cells; assay: LC-MS determination of total MDA, SH-SY5Y; assay type: cell-based, human; conditions: all time intervals
# [4] = 10 mg/kg i.p. + scopolamine, vs scopolamine control
# [5] = 10 mg/kg, retention trial, vs scopolamine control
smiles,measurement,setting,value
O[C@H](CNCC1CC1)[C@H](Cc1ccccc1)NC1c2ccccc2-c2ccccc21 [Compound 6],"latency to target, acquisition trial",[1]; [4],Statistically significant differences were also observed on day 4; also recorded: statistically significantly reduced latency to target
same,"number of errors, acquisition phase (days 1-4)",[1]; [4],no statistically significant differences in the number of errors
same,"number of errors, day 5","[1]; 10 mg/kg, drug-off trial",no significant differences among groups
same,"latency to former target location, day 12",[1]; [5],A similar effect was noted; also recorded: significantly shortened the latency to former target location
same,"number of errors, day 12",[1]; [5],significantly reduced number of errors made; also recorded: reduced the number of errors
same,locomotor activity,[2],None of these doses significantly affected the locomotor activity
same,increase in intracellular level of MDA,[3],no significant increase
